This is an account of results in patent US20080038321A1, “PROPHYLACTIC/THERAPEUTIC COMPOSITIONS FOR LIVER DISEASES” (Ajinomoto Co., Inc., priority 2004, published 2008).

In one series the test system is ACO. Kind of series: Liver gene expression in high-fat diet GK rats after 6-week administration (quantitative PCR): ACO. It counts as in vivo, rat. The source says: The mRNA levels are expressed while defining the level in the SD group as 1.00. <Primer Sequence>
A further series concerns TRB3. Kind of series: TRB3 mRNA in Fao cells with L-Asp, L-Ala or both (quantitative PCR). Conditions: 3 h, L-Asp 0.05 mM, L-Ala 0.03 mM or both. It is filed as cell-based, rat. The procedure: Whether the suppressive effect of L-Asp on TRB3 expression in rat hepatocyte-derived Fao cells is increased by adding L-Ala as another amino acid was studied. Whether the expression of HNF-4α is increased was also studied. Fao cells were inoculated on a 24-well plate to an amount of 2×10^5 cells/well, and the cells were cultivated in a 10% fetal bovine serum-containing RPMI 1640 medium (supplied from Nacalai Tesque, Inc.; Code No. 30264-85) at 37° C. in an atmosphere of 5% CO2 overnight. On the following day, the medium was replaced with one of a 10% fetal bovine serum-containing RPMI medium from which all amino acids had been removed (minus amino acid medium; Table 1) and media corresponding to the minus amino acid medium, except with L-Asp (concentration: 0.05 mM), L-Ala (concentration: 0.03 mM), or both added, and the cells were further cultivated at 37° C. in 2.5% CO2 atmosphere for three hours. RNAs were extracted from the cultured cells, and the TRB3 mRNA levels and the HNF-4α mRNA levels were determined through quantitative polymerase chain reaction (PCR) (Table 10).

In series [1] the test system is Wistar rats fed with high-fat diets. Kind of series: Wistar rats fed with high-fat diets: body weight and liver triglyceride. It counts as in vivo, rat. The source says: Pharmacological actions of L-Asp were identified using Wistar rats fed with high-fat diets.
These triglyceride contents were converted into total triglyceride contents in the entire liver.

Series [2] relates to GK rats fed with high-fat diets. Particulars: rat, in vivo.

For `N[C@@H](CC(=O)O)C(=O)O` [L-Asp, L-aspartic acid], the “ACO mRNA level in liver” value in the series with ACO (HFD + Asp, 6-week administration, HFD = 1.00 in table, n = 6, mean) is reported as 1.18. The same compound returned an ACO gene expression in the series on ACO (L-Asp administration, 6 weeks, HFD) of 1.18 time. Besides, in the series with TRB3 (minus amino acid medium = 1.00), the “TRB3 mRNA level” value came out at 0.54. Moreover, in the series with TRB3 (of minus amino acid medium), the “expression level of TRB3 mRNA” value is 54%. Besides, the Body weight was 328 ± 9 g in series [1] (before administration (baseline), HFD plus about 6% L-Asp, n = 6); “tended to have a decreased body weight” in series [1] (week 4, HFD plus about 6% L-Asp, n = 6); 474 ± 20 g in series [1] (week 4, HFD plus about 6% L-Asp, n = 6, listed as Asp); 221 ± 11 g in series [2]. Moreover, the triglyceride content in series [1] (four weeks, HFD plus Asp group, HFD group 57.6) is given as 43.4 mg per 1 g of the liver. For the same compound, the “total triglyceride content in the liver” value in series [1] (four weeks, HFD plus Asp group, HFD group 1047.5) was determined as 743.4 mg. Also, the “Triglyceride content in liver” value in series [1] (week 4, HFD plus about 6% L-Asp) was 43 ± 10 mg/g.
